From patent publication US11339161B2, “Triazolo pyridines as modulators of gamma-secretase” (Boehringer Ingelheim International GmbH, priority 2017, dated 2022)
Where two headings read alike, the source gives them in different places.

Key:
CSF1R (FMS) = CSF1R (FMS) (Homo sapiens, UniProt P07333); assay: Z'-LYTE SelectScreen biochemical kinase assay CSF1R (FMS)
Source text: (§1) Thermo Fisher Scientific SelectScreen™ Biochemical Kinase Profiling Service Z′-LYTE™ Screening Protocol and Assay Conditions Assay Theory
(§2) The […] biochemical assay employs a fluorescence-based, coupled-enzyme format and is based on the differential sensitivity of phosphorylated and non-phosphorylated peptides to proteolytic cleavage. The peptide substrate is labeled with two fluorophores—one at each end—that make up a FRET pair. In the primary reaction, the kinase transfers the gamma-phosphate of ATP to a single tyrosine, serine or threonine residue in a synthetic FRET-peptide. In the secondary reaction, a site-specific protease recognizes and cleaves non-phosphorylated FRET-peptides. Phosphorylation of FRET-peptides suppresses cleavage by the Development Reagent. Cleavage disrupts FRET between the donor (i.e., coumarin) and acceptor (i.e., fluorescein) fluorophores on the FRET-peptide, whereas uncleaved, phosphorylated FRET-peptides maintain FRET. A ratiometric method, which calculates the ratio (Emission Ratio=Coumarin emission (445 nm)/Fluorescein emission (520 nm)) of donor emission to acceptor emission after excitation of the donor fluorophore at 400 nm, is used to quantitate reaction progress, as shown in the equation below. A significant benefit of this ratiometric method for quantitating reaction progress is the elimination of well-to-well variations in FRET-peptide concentration and signal intensities. As a result, the assay yields very high Z′-factor values (>0.7) at a low percent phosphorylation. Both cleaved and uncleaved FRET-peptides contribute to the fluorescence signals and therefore to the Emission Ratio. The extent of phosphorylation of the FRET-peptide can be calculated from the Emission Ratio. The Emission Ratio will remain low if the FRET-peptide is phosphorylated (i.e., no kinase inhibition) and will be high if the FRET-peptide is non-phosphorylated (i.e., kinase inhibition).
(§3) The Test Compounds are screened in 1% DMSO (final) in the well. For 10 point titrations, 3-fold serial dilutions are conducted from the starting concentration of the customer's choosing.
(§4) All Peptide/Kinase Mixtures are diluted to a 2× working concentration in the appropriate Kinase Buffer (see section Kinase Specific Assay Conditions for a complete description).
(§5) All ATP Solutions are diluted to a 4× working concentration in Kinase Buffer (50 mM HEPES pH 7.5, 0.01% BRIJ-35, 10 mM MgCl2, 1 mM EGTA). ATP Km apparent is previously determined using a Z″-LYTE assay.
(§6) The Development Reagent is diluted in Development Buffer (see section Kinase-Specific Assay Conditions—Direct and Cascade for a complete description).
(§7) Bar-coded Corning, low volume NBS, black 384-well plate (Corning Cat. #4514) • 1. 100 nL—100× Test Compound in 100% DMSO • 2. 2.4 μL—Kinase buffer • 3. 5 μL—2× Peptide/Kinase Mixture • 4. 2.5 μL—4×ATP Solution • 5. 30—second plate shake • 6. 60—minute Kinase Reaction incubation at room temperature • 7. 5 μL—Development Reagent Solution • 8. 30—second plate shake • 9. 60—minute Development Reaction incubation at room temperature • 10. Read on fluorescence plate reader and analyze the data Z′-LYTE Assay Controls
(§8) SelectScreen Kinase Profiling Service uses XLfit from IDBS. The dose response curve is curve fit to model number 205 (sigmoidal dose-response model).
The 2×CSF1R (FMS)/Tyr 01 mixture is prepared in 50 mM HEPES pH 7.5, 0.01% BRIJ-35, 10 mM MgCl2, 1 mM EGTA. The final 10 μL Kinase Reaction consists of 0.2-40 ng CSF1R (FMS) and 2 μM Tyr 01 in 50 mM HEPES pH 7.5, 0.01% BRIJ-35, 10 mM MgCl2, 1 mM EGTA. After the 1 hour Kinase Reaction incubation, 5 μL of a 1:256 dilution of Development Reagent B is added.

CDK5/p35 = CDK5/p35 (Homo sapiens, UniProt Q00535); assay: Z'-LYTE SelectScreen biochemical kinase assay CDK5/p35
Sequence of CDK5/p35 (Q00535 whole entry): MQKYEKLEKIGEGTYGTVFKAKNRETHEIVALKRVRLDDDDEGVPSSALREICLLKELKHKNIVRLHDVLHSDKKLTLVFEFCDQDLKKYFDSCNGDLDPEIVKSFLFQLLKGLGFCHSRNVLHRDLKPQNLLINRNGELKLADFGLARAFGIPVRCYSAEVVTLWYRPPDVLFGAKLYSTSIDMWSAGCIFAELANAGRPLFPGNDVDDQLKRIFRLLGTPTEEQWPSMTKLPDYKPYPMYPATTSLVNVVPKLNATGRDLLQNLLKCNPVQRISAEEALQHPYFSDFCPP
Sequence of CDK5/p35 (Q15078 whole entry partner): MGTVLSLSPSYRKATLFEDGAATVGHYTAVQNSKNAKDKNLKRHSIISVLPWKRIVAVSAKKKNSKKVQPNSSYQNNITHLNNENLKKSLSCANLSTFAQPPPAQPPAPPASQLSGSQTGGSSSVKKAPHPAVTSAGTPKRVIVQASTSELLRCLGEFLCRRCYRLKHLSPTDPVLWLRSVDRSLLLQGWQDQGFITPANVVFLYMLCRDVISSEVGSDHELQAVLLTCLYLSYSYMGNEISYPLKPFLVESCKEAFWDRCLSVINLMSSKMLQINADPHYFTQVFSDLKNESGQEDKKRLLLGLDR
Source text: as §1, §2, §3, §4, §5, §6, §7, §8
The 2×CDK5/p35/Ser/Thr 12 mixture is prepared in 50 mM HEPES pH 7.5, 0.01% BRIJ-35, 10 mM MgCl2, 1 mM EGTA. The final 10 μL Kinase Reaction consists of 0.14-1.3 ng CDK5/p35 and 2 μM Ser/Thr 12 in 50 mM HEPES pH 7.5, 0.01% BRIJ-35, 10 mM MgCl2, 1 mM EGTA. After the 1 hour Kinase Reaction incubation, 5 μL of a 1:4096 dilution of Development Reagent A is added.

Aβ42 production = assay: Inhibition of Aβ42 production in H4 neuroglioma cells stably expressing human APP695 (MSD electrochemiluminescence); assay type: cell-based; conditions: for modulation of γ-secretase (in words): tables 4a/4b
Protocol: Cells were plated out to near confluency. The compounds to be tested were received as 10 mM stocks in 100% DMSO. A dilution series was initially generated in 100% DMSO and then diluted 200-fold in cell culture media such that the tested concentration range was 30 μM to 0.1 nM and the final DMSO concentration was 0.5%. The diluted compounds were incubated with the cells for 22 hours in an incubator at 37° C. and 5% CO2. Aβ42 levels were measured post-incubation from the supernatant of the cells using an Aβ42 specific electrochemiluminescence assay provided by Meso Scale Discovery (Catalog #L21CA-1). The measurement of Aβ42 levels were performed according to the manufacturer's protocol.

[1] = 10 μmolar compound concentration, ATP at Km app, read-out: CSF1R (FMS) inhibition
[2] = 10 μmolar compound concentration, ATP at Km app, read-out: CDK5/p35 inhibition
[3] = Homo sapiens, H4 neuroglioma cells, same assay as table 4a, prior art compounds, Table 4b
[4] = read-out: % Inhibition mean CSF1R (FMS)
[5] = read-out: % Inhibition mean CDK5/p35
[6] = H4 neuroglioma cells expressing human APP695, 22 hours incubation, Table 4a

Sequence of CSF1R (FMS) (P07333 20-972): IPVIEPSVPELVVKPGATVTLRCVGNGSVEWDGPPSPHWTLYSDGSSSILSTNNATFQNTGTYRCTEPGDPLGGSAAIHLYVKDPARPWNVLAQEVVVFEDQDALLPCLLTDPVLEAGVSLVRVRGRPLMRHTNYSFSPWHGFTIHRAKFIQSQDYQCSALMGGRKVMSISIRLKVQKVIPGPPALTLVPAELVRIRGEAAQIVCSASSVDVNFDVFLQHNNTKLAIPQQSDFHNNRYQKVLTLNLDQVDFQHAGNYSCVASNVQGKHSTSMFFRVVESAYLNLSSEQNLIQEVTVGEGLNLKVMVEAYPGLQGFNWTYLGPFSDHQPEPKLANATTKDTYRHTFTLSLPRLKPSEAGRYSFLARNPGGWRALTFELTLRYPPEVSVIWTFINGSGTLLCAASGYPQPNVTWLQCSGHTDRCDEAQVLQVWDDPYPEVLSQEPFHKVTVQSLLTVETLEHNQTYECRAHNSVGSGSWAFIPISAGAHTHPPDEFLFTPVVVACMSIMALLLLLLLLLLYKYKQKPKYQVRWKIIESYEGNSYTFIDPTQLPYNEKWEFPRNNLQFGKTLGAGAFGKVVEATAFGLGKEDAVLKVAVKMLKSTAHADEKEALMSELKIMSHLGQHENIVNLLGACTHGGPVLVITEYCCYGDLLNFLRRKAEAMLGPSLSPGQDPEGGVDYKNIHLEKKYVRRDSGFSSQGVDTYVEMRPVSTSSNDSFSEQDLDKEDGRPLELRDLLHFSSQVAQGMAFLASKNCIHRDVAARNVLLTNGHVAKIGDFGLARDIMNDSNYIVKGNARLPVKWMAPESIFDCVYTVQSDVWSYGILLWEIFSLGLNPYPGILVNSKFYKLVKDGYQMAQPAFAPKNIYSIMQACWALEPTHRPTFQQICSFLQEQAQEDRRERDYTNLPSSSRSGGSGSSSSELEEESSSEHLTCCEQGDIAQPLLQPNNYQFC

| SMILES | inhibition at 10 µM (CSF1R (FMS); [1]) [%] | inhibition at 10 µM (CSF1R (FMS); read-out: % Inhibition mean) [%] | inhibition at 10 µM (CDK5/p35; [2]) [%] | inhibition at 10 µM (CDK5/p35; read-out: % Inhibition mean) [%] | IC50 (Aβ42 production; [3]) [nM] | modulation of γ-secretase (in words) (Aβ42 production) | inhibition at 10 µM (CSF1R (FMS); [4]) [%] | inhibition at 10 µM (CDK5/p35; [5]) [%] | IC50 (Aβ42 production; [6]) [nM] |
| --- | --- | --- | --- | --- | --- | --- | --- | --- | --- |
| CC1(C)C(=O)Nc2ccc(Nc3nc4c(-c5cccc(F)c5)cccn4n3)cc21 [Cpd. 263 in WO09155551, reference compound] | > 80 | 93 | > 80 | 83 | 6000 | rather poor modulation | – | – | – |
| Fc1cccc(-c2cccn3nc(Nc4ccc5[nH]cnc5c4)nc23)c1 [Cpd. 293 in WO09155551, reference compound] | > 80 | 90 | > 80 | 90 | 7000 | do not show any modulation | – | – | – |
| CC1(C)NC(=O)c2ccc(Nc3nc4c(-c5cccc(F)c5)cccn4n3)cc21 [Cpd. 302 in WO09155551, reference compound] | > 80 | 95 | > 80 | 88 | > 10000 | do not show any modulation | – | – | – |
| Cc1cc(F)ccc1-c1cccn2nc(Nc3ccc4c(cnn4C)c3)nc12 [Example 9, [8-(4-fluoro-2-methyl-phenyl)-[1,2,4]triazolo[1,5-a]pyridine-2-yl]-(1-methyl-1H-indazol-5-yl)-amine] | > 80 | – | 40 to 80 | – | – | – | 82 | 42 | 1260 |
| Cc1cc(F)ccc1-c1cccn2nc(NC3CCc4c(cnn4C)C3)nc12 (stereo not drawn) [Example 10, [8-(4-fluoro-2-methyl-phenyl)-[1,2,4]triazolo[1,5-a]pyridine-2-yl]-(1-methyl-4,5,6,7-tetrahydro-1H-indazol-5-yl)-amine] | 40 to 80 | – | 40 to 80 | – | – | – | 42 | 44 | 380 |
| Cc1cc(F)ccc1-c1cccn2nc(NC3CCc4cnn(C)c4C3)nc12 (stereo not drawn) [Example 40, [8-(4-Fluoro-2-methyl-phenyl)-[1,2,4]triazolo[1,5-a]pyridine-2-yl]-(1-methyl-4,5,6,7-tetrahydro-1H-indazol-6-yl)-amine] | < 40 | – | 40 to 80 | – | – | – | 25 | 61 | > 30000 |
| CCn1ncc2c1CCC(Nc1nc3c(-c4ccc(F)cc4C)cccn3n1)C2 (stereo not drawn) [Example 42, (1-Ethyl-4,5,6,7-tetrahydro-1H-indazol-5-yl)-[8-(4-fluoro-2-methyl-phenyl)-[1,2,4]triazolo[1,5-a]pyridine-2-yl]-amine] | < 40 | – | < 40 | – | – | – | 34 | 39 | 70 |
| CCCn1ncc2c1CCC(Nc1nc3c(-c4ccc(F)cc4C)cccn3n1)C2 (stereo not drawn) [Example 43, [8-(4-fluoro-2-methyl-phenyl)-[1,2,4]triazolo[1,5-a]pyridine-2-yl]-(1-propyl-4,5,6,7-tetrahydro-1H-indazol-5-yl)-amine] | < 40 | – | < 40 | – | – | – | 28 | 36 | 60 |
| Cc1cc(F)ccc1-c1cccn2nc(NC3CCc4c(cnn4C(C)C)C3)nc12 (stereo not drawn) [Example 44, [8-(4-fluoro-2-methyl-phenyl)-[1,2,4]triazolo[1,5-a]pyridine-2-yl]-(1-isopropyl-4,5,6,7-tetrahydro-1H-indazol-5-yl)-amine] | 40 to 80 | – | < 40 | – | – | – | 43 | 25 | 430 |
| Cc1cc(F)ccc1-c1cccn2nc(NC3CCc4c(cnn4CC(C)C)C3)nc12 (stereo not drawn) [Example 45, [8-(4-fluoro-2-methyl-phenyl)-[1,2,4]triazolo[1,5-a]pyridine-2-yl]-(1-isobutyl-4,5,6,7-tetrahydro-1H-indazol-5-yl)-amine] | 40 to 80 | – | < 40 | – | – | – | 40 | 8 | 3400 |
| CCCCn1ncc2c1CCC(Nc1nc3c(-c4ccc(F)cc4C)cccn3n1)C2 (stereo not drawn) [Example 46, [8-(4-fluoro-2-methyl-phenyl)-[1,2,4]triazolo[1,5-a]pyridine-2-yl]-(1-butyl-4,5,6,7-tetrahydro-1H-indazol-5-yl)-amine] | < 40 | – | < 40 | – | – | – | 24 | 34 | 2770 |
| CCCCCn1ncc2c1CCC(Nc1nc3c(-c4ccc(F)cc4C)cccn3n1)C2 (stereo not drawn) [Example 47, [8-(4-fluoro-2-methyl-phenyl)-[1,2,4]triazolo[1,5-a]pyridine-2-yl]-(1-pentyl-4,5,6,7-tetrahydro-1H-indazol-5-yl)-amine] | < 40 | – | < 40 | – | – | – | 15 | 13 | > 30000 |
| CCn1nc(Cl)c2c1CCC(Nc1nc3c(-c4ccc(F)cc4C)cccn3n1)C2 (stereo not drawn) [Example 48, (3-Chloro-1-ethyl-4,5,6,7-tetrahydro-1H-indazol-5-yl)-[8-(4-fluoro-2-methyl-phenyl)-[1,2,4]triazolo[1,5-a]pyridine-2-yl]-amine] | < 40 | – | < 40 | – | – | – | 15 | 38 | 750 |
| CCn1ncc2c1C(C)CC(Nc1nc3c(-c4cc(F)c(F)c(F)c4)cccn3n1)C2 (stereo not drawn) [Example 49, (1-Ethyl-7-methyl-4,5,6,7-tetrahydro-1H-indazol-5-yl)-[8-(3,4,5-trifluoro-phenyl)-[1,2,4]triazolo[1,5-a]pyridine-2-yl]-amine] | < 40 | – | < 40 | – | – | – | 34 | 7 | 950 |
| CCn1nnc2c1CCC(Nc1nc3c(-c4ccc(F)cc4C)cccn3n1)C2 (stereo not drawn) [Example 51, (1-Ethyl-4,5,6,7-tetrahydro-1H-benzotriazol-5-yl)-[8-(4-fluoro-2-methyl-phenyl)-[1,2,4]triazolo[1,5-a]pyridine-2-yl]-amine] | < 40 | – | < 40 | – | – | – | 9 | 23 | 2200 |
